Results from patent publication US9125862B2, “Methods for the treatment of Prader-Willi-like syndrome or non-organic failure to thrive (NOFITT) feeding disorder using an agonist of the oxytocin receptor” (Institut National de la Sante et de la Rechereche Medicale …, priority 2010, dated 2015).

Experiments:
wild type newborns = assay: Injection of oxytocin in wild type neonates: lethality and survival; assay type: in vivo, mouse
Description: Three to 5 hours after delivery, wild type pups or pups issued from a cross between an heterozygote (+/−) male with wild type females were temporally removed (10 min) from their mother, weighted and given a single s.c. (in the ventral region at the level of floating ribs) injection (20 μl) of isotonic saline or 2 μg oxytocin (Phoenix Pharmaceuticals. Inc., Catalog No. 051-01) dissolved in isotonic saline (20 μl). […] Following the same protocol, we injected vasopressin (Phoenix Pharmaceuticals. Inc., Catalog No. 065-07) at different doses. At P2, pups were scarified to be genotyped.
The results obtained with the injection of SSR 126768A OTA let us think that we might restore a normal feeding behaviour in Magel2 KO newborns with an OT injection just after birth. Early neonatal manipulation of OT was reported in the literature without alterations of the postnatal development (Cushing, B. S., et Al., 2003; Yamamoto, Y., et al., 2004; Saito, O., et Al., 2007). Initially, 28 wild type newborns were injected with an isotonic saline (20 μl) and 4 of them died at P1. Another cohort of 28 wild type newborns, […] on hypothalamic nuclei one hour after the injection (Cushing, B. S., et Al., 2003; Yamamoto, Y., et al., 2004). […] At P2, we observed that 95% (35/37) of wild type and 93% (37/40) of Magel2 mutant newborns survived with milk previously detected in their stomach at P1. […]

adult patients with PWS = assay: Eating behaviour scoring after intranasal administration; assay type: in vivo, human
From the text: The behaviour of the patients was carefully monitored, scored daily by the team psychologist, and documented on the case report form for the two days before drug administration, on the half-day following administration (early effects) and over the two days following drug administration (late effects). Both the staff and the rater were unaware of treatment status. There are currently no validated grids that evaluate the specific behavioural features of patients with PWS that they particularly wanted to study, i.e. tendencies towards isolation, sadness, and depression, self-depreciation, self-mutilation, conflicts with others, disruptive behaviour, interest in friendship, interest in love affairs, and trust of others. […] The patients were well known to the team but the mean behavior status was re-evaluated during the first week of admission using the same grid. The behavioural features of the patients were scored as unchanged, moderately changed, or severely changed. […] Eating behaviour was also scored using three categories: usual, better than usual or worse, based on the analysis of each meal. The following were evaluated: amount of food intake per meal, amount of food requested per meal, duration of meal, and behaviour before/during/after the meal. To evaluate the early effect of OT, we analysed only the first meal after drug administration.

CC[C@H](C)[C@@H]1NC(=O)[C@H](Cc2ccc(O)cc2)NC(=O)[C@@H](N)CSSC[C@@H](C(=O)N2CCC[C@H]2C(=O)N[C@@H](CC(C)C)C(=O)NCC(N)=O)NC(=O)[C@H](CC(N)=O)NC(=O)[C@H](CCC(N)=O)NC1=O [oxytocin]
level of lethality (wild type newborns; s.c. oxytocin 2 μg in 20 μl NaCl 0.9%, wild type pups n=28, saline 4/28): 3/28 | newborns survived at P2 with milk in stomach at P1 (wild type newborns; wild type, 2 μg oxytocin s.c. 3 to 5 hours after birth): 95% | scores assessing eating behaviour, OT vs placebo group (adult patients with PWS; intranasal 24 UI): No statistical difference | patients who did not feel hungry and slightly decreased their food intake (adult patients with PWS; over the two days following intranasal administration, five patients, placebo 10%): 45%
